Measurements reported in PMC5218480 (PLoS ONE, 2017).

System: MV-4-11 cells
Test: Gene expression microarray analysis (Affymetrix PrimeView) and GSEA
Format: cell-based, human
Design: RFU PODN (11730768_x_at) / Fold change /veh PODN (11730768_x_at) / RFU LINC00158 (11744669_a_at) / Fold change /veh LINC00158 (11744669_a_at) / RFU DUSP10 (11751237_a_at) / Fold change /veh DUSP10 (11751237_a_at) / RFU ID3 (11757404_x_at) / Fold change /veh ID3 (11757404_x_at) / RFU PLEKHG5 (11737974_s_at) / Fold change /veh PLEKHG5 (11737974_s_at) / RFU LRRC4B (11730491_at) / Fold change /veh LRRC4B (11730491_at) / RFU GIMAP4 (11747438_a_at) / Fold change /veh GIMAP4 (11747438_a_at) / RFU KRT8 (11758183_x_at) / Fold change /veh KRT8 (11758183_x_at) / RFU CNN1 (11734310_a_at) / Fold change /veh CNN1 (11734310_a_at) / RFU VPS37D (11726825_at) / Fold change /veh VPS37D (11726825_at) / RFU C10orf10 (11716522_x_at) / Fold change /veh C10orf10 (11716522_x_at) / RFU KIR2DL2 /// KIR2DL4 /// KIR2DL5A /// KIR2DL5B /// KIR2DS1 /// KIR2DS2 /// KIR2DS3 /// KIR2DS4 /// KIR3DL3 /// KIR3DL3 /// KIR3DS1 (11738374_at) / Fold change /veh KIR2DL2 /// KIR2DL4 /// KIR2DL5A /// KIR2DL5B /// KIR2DS1 /// KIR2DS2 /// KIR2DS3 /// KIR2DS4 /// KIR3DL3 /// KIR3DL3 /// KIR3DS1 (11738374_at) / RFU C1QL1 (11718748_at) / Fold change /veh C1QL1 (11718748_at) / RFU TMPRSS4 (11747572_a_at) / Fold change /veh TMPRSS4 (11747572_a_at) / RFU HAMP (11756126_x_at) / Fold change /veh HAMP (11756126_x_at) / RFU RNFT2 (11725882_a_at) / Fold change /veh RNFT2 (11725882_a_at) / RFU NR4A2 (11747474_a_at) / Fold change /veh NR4A2 (11747474_a_at) / RFU ABCC12 (11746883_a_at) / Fold change /veh ABCC12 (11746883_a_at) / RFU TMEM136 (11760407_x_at) / Fold change /veh TMEM136 (11760407_x_at) / RFU CLDN22 /// WWC2 (11732394_at) / Fold change /veh CLDN22 /// WWC2 (11732394_at) / RFU HLA-DPB1 (11760878_x_at) / Fold change /veh HLA-DPB1 (11760878_x_at) / RFU SPINT1 (11716480_a_at) / Fold change /veh SPINT1 (11716480_a_at) / RFU GAP43 (11754022_s_at) / Fold change /veh GAP43 (11754022_s_at) / RFU A4GNT (11735810_at) / Fold change /veh A4GNT (11735810_at) / RFU PRB3 (11715151_x_at) / Fold change /veh PRB3 (11715151_x_at) / RFU TUBB4B (11761932_at) / Fold change /veh TUBB4B (11761932_at) / RFU CAPN14 (11732068_a_at) / Fold change /veh CAPN14 (11732068_a_at) / RFU TMCC2 (11721928_a_at) / Fold change /veh TMCC2 (11721928_a_at) / RFU IRGQ (11745062_a_at) / Fold change /veh IRGQ (11745062_a_at) / RFU FAM174B (11720279_a_at) / Fold change /veh FAM174B (11720279_a_at) / RFU TMPRSS4 (11748680_a_at) / Fold change /veh TMPRSS4 (11748680_a_at) / RFU FAM212B (11763350_a_at) / Fold change /veh FAM212B (11763350_a_at) / RFU PLEKHG5 (11743358_a_at) / Fold change /veh PLEKHG5 (11743358_a_at) / RFU ZSCAN30 (11745921_a_at) / Fold change /veh ZSCAN30 (11745921_a_at) / RFU CMKLR1 (11741424_a_at) / Fold change /veh CMKLR1 (11741424_a_at) / RFU LOC101060620 /// MAPK8IP1 (11723275_at) / Fold change /veh LOC101060620 /// MAPK8IP1 (11723275_at) / RFU SPTSSB (11747773_x_at) / Fold change /veh SPTSSB (11747773_x_at) / RFU PRSS12 (11739890_at) / Fold change /veh PRSS12 (11739890_at) / RFU BIN1 (11741810_x_at) / Fold change /veh BIN1 (11741810_x_at) / RFU WNT11 (11732464_a_at) / Fold change /veh WNT11 (11732464_a_at) / RFU C10orf10 (11716521_a_at) / Fold change /veh C10orf10 (11716521_a_at) / RFU C5orf56 (11738089_at) / Fold change /veh C5orf56 (11738089_at) / RFU CYB561 (11721691_x_at) / Fold change /veh CYB561 (11721691_x_at) / RFU ANKRD19P (11752326_a_at) / Fold change /veh ANKRD19P (11752326_a_at) / RFU OR2T12 /// OR2T33 /// OR2T8 (11738714_s_at) / Fold change /veh OR2T12 /// OR2T33 /// OR2T8 (11738714_s_at) / RFU VCAN (11748164_a_at) / Fold change /veh VCAN (11748164_a_at) / RFU JSRP1 (11732532_at) / Fold change /veh JSRP1 (11732532_at) / RFU KRTAP10-11 (11738290_x_at) / Fold change /veh KRTAP10-11 (11738290_x_at) / RFU MYO3A (11730013_a_at) / Fold change /veh MYO3A (11730013_a_at) / RFU EBF3 (11725865_a_at) / Fold change /veh EBF3 (11725865_a_at) / RFU CAMK2N1 (11719241_x_at) / Fold change /veh CAMK2N1 (11719241_x_at) / RFU C5orf56 (11738088_a_at) / Fold change /veh C5orf56 (11738088_a_at) / RFU OLFML3 (11715873_a_at) / Fold change /veh OLFML3 (11715873_a_at) / RFU LOC100653217 /// NTM (11731650_a_at) / Fold change /veh LOC100653217 /// NTM (11731650_a_at) / RFU MAPK11 (11762145_a_at) / Fold change /veh MAPK11 (11762145_a_at) / RFU FIZ1 (11724087_x_at) / Fold change /veh FIZ1 (11724087_x_at) / RFU OASL (11726364_x_at) / Fold change /veh OASL (11726364_x_at) / RFU SOX15 (11748057_x_at) / Fold change /veh SOX15 (11748057_x_at) / RFU CD79A (11719716_a_at) / Fold change /veh CD79A (11719716_a_at) / RFU HIST1H1D (11736915_at) / Fold change /veh HIST1H1D (11736915_at) / RFU CASKIN2 (11723855_a_at) / Fold change /veh CASKIN2 (11723855_a_at) / RFU LOC730098 (11760151_x_at) / Fold change /veh LOC730098 (11760151_x_at) / RFU OR4N2 (11742367_at) / Fold change /veh OR4N2 (11742367_at) / RFU PRRT2 (11749266_a_at) / Fold change /veh PRRT2 (11749266_a_at) / RFU SNX32 (11753110_a_at) / Fold change /veh SNX32 (11753110_a_at) / RFU CDHR5 (11726645_a_at) / Fold change /veh CDHR5 (11726645_a_at) / RFU RCAN1 (11760418_a_at) / Fold change /veh RCAN1 (11760418_a_at) / RFU FAM167A (11723789_a_at) / Fold change /veh FAM167A (11723789_a_at) / RFU FAM26E (11764081_at) / Fold change /veh FAM26E (11764081_at) / RFU ISYNA1 (11749810_s_at) / Fold change /veh ISYNA1 (11749810_s_at) / RFU ACY1 (11761880_at) / Fold change /veh ACY1 (11761880_at) / RFU 11764098_at / Fold change /veh 11764098_at / RFU SAMD14 (11745864_x_at) / Fold change /veh SAMD14 (11745864_x_at) / RFU NPB (11741838_a_at) / Fold change /veh NPB (11741838_a_at) / RFU TMPRSS6 (11731388_a_at) / Fold change /veh TMPRSS6 (11731388_a_at) / RFU KRTAP10-2 (11738614_at) / Fold change /veh KRTAP10-2 (11738614_at) / RFU ARHGAP8 /// PRR5-ARHGAP8 (11727945_x_at) / Fold change /veh ARHGAP8 /// PRR5-ARHGAP8 (11727945_x_at) / RFU KRTAP5-7 /// NADSYN1 (11734609_at) / Fold change /veh KRTAP5-7 /// NADSYN1 (11734609_at) / RFU RASL12 (11751679_a_at) / Fold change /veh RASL12 (11751679_a_at) / RFU CDKN2B (11736163_a_at) / Fold change /veh CDKN2B (11736163_a_at) / RFU PRF1 (11729649_at) / Fold change /veh PRF1 (11729649_at) / RFU, ZNF638 /// ZNF638-IT1 / Fold change vs veh, ZNF638 /// ZNF638-IT1 / RFU, PANK3 / Fold change vs veh, PANK3 / RFU, SH3YL1 / Fold change vs veh, SH3YL1 / RFU, ZEB2 / Fold change vs veh, ZEB2 / RFU, NRIP1 / Fold change vs veh, NRIP1 / RFU, PTTG1IP / Fold change vs veh, PTTG1IP / RFU, CAPN2 / Fold change vs veh, CAPN2 / RFU, MED14 / Fold change vs veh, MED14 / RFU, SNORA58 / Fold change vs veh, SNORA58 / RFU, C1orf63 / Fold change vs veh, C1orf63 / RFU, LRRFIP1 / Fold change vs veh, LRRFIP1 / RFU, NDUFAF7 / Fold change vs veh, NDUFAF7 / RFU, SLC12A2 / Fold change vs veh, SLC12A2 / RFU, IBTK / Fold change vs veh, IBTK / RFU, ESF1 / Fold change vs veh, ESF1 / Fold change vs veh, TMEM50B / RFU, TAOK1 / Fold change vs veh, TAOK1 / RFU, ACBD3 / Fold change vs veh, ACBD3 / RFU, TMA16 / Fold change vs veh, TMA16 / RFU, RWDD3 / Fold change vs veh, RWDD3 / RFU, BCAT1 / Fold change vs veh, BCAT1 / RFU, EDEM3 / Fold change vs veh, EDEM3 / RFU, TMEM33 / Fold change vs veh, TMEM33 / RFU, WDR75 / Fold change vs veh, WDR75 / RFU, AHCTF1 / Fold change vs veh, AHCTF1 / RFU, TFRC / Fold change vs veh, TFRC / RFU, ZDHHC17 / Fold change vs veh, ZDHHC17 / RFU, NOM1 / Fold change vs veh, NOM1 / RFU, ARL8B / Fold change vs veh, ARL8B / RFU, ZBTB11 / Fold change vs veh, ZBTB11 / RFU, TAMM41 / Fold change vs veh, TAMM41 / RFU, KIAA1704 /// LOC100996395 / Fold change vs veh, KIAA1704 /// LOC100996395 / RFU, ING1 / Fold change vs veh, ING1 / RFU, TRMT61B / Fold change vs veh, TRMT61B / RFU, FUBP3 / Fold change vs veh, FUBP3 / RFU, TP53 / Fold change vs veh, TP53 / RFU, TNKS2 / Fold change vs veh, TNKS2 / RFU, ZFP14 / Fold change vs veh, ZFP14 / RFU, ACTR2 / Fold change vs veh, ACTR2 / RFU, PPP3R1 / Fold change vs veh, PPP3R1 / RFU, PIK3R1 / Fold change vs veh, PIK3R1 / RFU, HNRNPA1 / Fold change vs veh, HNRNPA1 / RFU, RNF170 / Fold change vs veh, RNF170 / RFU, ZNF28 / Fold change vs veh, ZNF28 / RFU, RNGTT / Fold change vs veh, RNGTT / RFU, OGT / Fold change vs veh, OGT / RFU, BRD1 / Fold change vs veh, BRD1 / RFU, MARS / Fold change vs veh, MARS / RFU, ZNF655 / Fold change vs veh, ZNF655 / RFU, FAHD1 / Fold change vs veh, FAHD1 / RFU, BDP1 / Fold change vs veh, BDP1 / RFU, LRRCC1 / Fold change vs veh, LRRCC1 / RFU, ARID1A / Fold change vs veh, ARID1A / RFU, ZNF146 / Fold change vs veh, ZNF146 / RFU, ZNF330 / Fold change vs veh, ZNF330 / RFU, GPN3 / Fold change vs veh, GPN3 / RFU, C9orf123 / Fold change vs veh, C9orf123 / RFU, N4BP2L2 / Fold change vs veh, N4BP2L2 / RFU, ARFIP1 / Fold change vs veh, ARFIP1 / RFU, FAM179B / Fold change vs veh, FAM179B / RFU, BCL10 / Fold change vs veh, BCL10 / RFU, UHRF1BP1L / Fold change vs veh, UHRF1BP1L / RFU, BET1 / Fold change vs veh, BET1 / RFU, CNOT2 / Fold change vs veh, CNOT2 / RFU, ZNF268 / Fold change vs veh, ZNF268 / Fold change vs veh, ZNF507 / RFU, DGCR2 / Fold change vs veh, DGCR2 / RFU, WDSUB1 / Fold change vs veh, WDSUB1 / Fold change vs veh, HSP90B1 /// MIR3652 / RFU, ADSS / Fold change vs veh, ADSS / RFU, GK / Fold change vs veh, GK / RFU, ZNF148 / Fold change vs veh, ZNF148 / RFU, TAF9 / Fold change vs veh, TAF9 / RFU, SLC1A5 / Fold change vs veh, SLC1A5 / RFU, SLMO2 / Fold change vs veh, SLMO2 / RFU, ABCC4 / Fold change vs veh, ABCC4 / RFU, LOC101060439 /// RAP1B / Fold change vs veh, LOC101060439 /// RAP1B / RFU, RFX7 / Fold change vs veh, RFX7 / RFU, GTPBP10 / Fold change vs veh, GTPBP10 / RFU, CNEP1R1 / Fold change vs veh, CNEP1R1 / RFU, BIVM-ERCC5 /// ERCC5 / Fold change vs veh, BIVM-ERCC5 /// ERCC5 / RFU, ILF3 / Fold change vs veh, ILF3 / RFU 11762660_at / Fold change /veh 11762660_at / RFU VCAN (11757783_s_at) / Fold change /veh VCAN (11757783_s_at) / RFU DDX43 (11728927_at) / Fold change /veh DDX43 (11728927_at) / RFU KRT8 (11758188_x_at) / Fold change /veh KRT8 (11758188_x_at) / RFU NKD1 (11759106_at) / Fold change /veh NKD1 (11759106_at) / RFU SRD5A1 (11742802_a_at) / Fold change /veh SRD5A1 (11742802_a_at) / RFU TPSAB1 /// TPSB2 (11721975_s_at) / Fold change /veh TPSAB1 /// TPSB2 (11721975_s_at) / RFU GSTM3 (11746129_a_at) / Fold change /veh GSTM3 (11746129_a_at) / RFU IL23R (11737362_x_at) / Fold change /veh IL23R (11737362_x_at) / RFU TMEM51 (11727254_a_at) / Fold change /veh TMEM51 (11727254_a_at) / RFU PIWIL2 (11732686_x_at) / Fold change /veh PIWIL2 (11732686_x_at) / RFU ORM1 (11744905_x_at) / Fold change /veh ORM1 (11744905_x_at) / RFU CCDC152 (11743942_at) / Fold change /veh CCDC152 (11743942_at) / RFU ECM1 (11717891_a_at) / Fold change /veh ECM1 (11717891_a_at) / RFU IL23R (11748794_a_at) / Fold change /veh IL23R (11748794_a_at) / RFU TNFAIP8L3 (11732012_x_at) / Fold change /veh TNFAIP8L3 (11732012_x_at) / RFU MBOAT4 (11741988_at) / Fold change /veh MBOAT4 (11741988_at) / RFU 11764193_at / Fold change /veh 11764193_at / RFU TMEM53 (11763286_at) / Fold change /veh TMEM53 (11763286_at) / RFU MAGEB2 (11727129_at) / Fold change /veh MAGEB2 (11727129_at) / RFU TMEM200A (11744735_a_at) / Fold change /veh TMEM200A (11744735_a_at) / RFU CCDC152 (11751479_a_at) / Fold change /veh CCDC152 (11751479_a_at) / RFU FAM211A (11726209_a_at) / Fold change /veh FAM211A (11726209_a_at) / RFU RGS16 (11746705_a_at) / Fold change /veh RGS16 (11746705_a_at) / RFU VCAN (11755009_s_at) / Fold change /veh VCAN (11755009_s_at) / RFU RHOB (11743442_s_at) / Fold change /veh RHOB (11743442_s_at) / RFU RGS16 (11720943_a_at) / Fold change /veh RGS16 (11720943_a_at) / RFU RGS16 (11720944_at) / Fold change /veh RGS16 (11720944_at) / RFU, VPS4B / Fold change vs veh, VPS4B / RFU, CREB1 / Fold change vs veh, CREB1 / RFU, DNAJC13 / Fold change vs veh, DNAJC13 / RFU, GNAQ / Fold change vs veh, GNAQ / RFU, CDK5R1 / Fold change vs veh, CDK5R1 / RFU, ZRANB3 / Fold change vs veh, ZRANB3 / RFU, CUL4A / Fold change vs veh, CUL4A / RFU, CCNY / Fold change vs veh, CCNY / RFU, UFL1 / Fold change vs veh, UFL1 / RFU, COG3 / Fold change vs veh, COG3 / RFU, DIAPH2 / Fold change vs veh, DIAPH2 / RFU, SKA2 / Fold change vs veh, SKA2 / RFU, AFF3 / Fold change vs veh, AFF3 / RFU, LMF1 / Fold change vs veh, LMF1 / RFU, IPO11 / Fold change vs veh, IPO11 / RFU, DFFB / Fold change vs veh, DFFB / RFU, FOXP1 / Fold change vs veh, FOXP1 / RFU, CARD8 / Fold change vs veh, CARD8 / RFU, STRN3 / Fold change vs veh, STRN3 / RFU, ADK / Fold change vs veh, ADK / RFU, RASSF2 / Fold change vs veh, RASSF2 / RFU, WIPF1 / Fold change vs veh, WIPF1 / RFU, LARP1B / Fold change vs veh, LARP1B / RFU, RASA1 / Fold change vs veh, RASA1 / RFU, RB1 / Fold change vs veh, RB1 / RFU, PPFIA1 / Fold change vs veh, PPFIA1 / RFU, MAT2A / Fold change vs veh, MAT2A / RFU, CCT5 / Fold change vs veh, CCT5 / RFU, WDR92 / Fold change vs veh, WDR92 / RFU, CUX1 / Fold change vs veh, CUX1 / RFU, TTC7A / Fold change vs veh, TTC7A / RFU, TMEM135 / Fold change vs veh, TMEM135 / RFU, DEPTOR / Fold change vs veh, DEPTOR / RFU, CPM / Fold change vs veh, CPM / RFU, DNAJB6 / Fold change vs veh, DNAJB6 / RFU, CACNA2D3 / Fold change vs veh, CACNA2D3 / RFU, DTX4 / Fold change vs veh, DTX4 / RFU, TFCP2 / Fold change vs veh, TFCP2 / RFU, GMCL1 /// GMCL1P1 / Fold change vs veh, GMCL1 /// GMCL1P1 / RFU, AEBP2 / Fold change vs veh, AEBP2 / RFU, SNHG1 /// SNORD22 /// SNORD25 /// SNORD26 /// SNORD27 /// SNORD28 /// SNORD29 /// SNORD31 / Fold change vs veh, SNHG1 /// SNORD22 /// SNORD25 /// SNORD26 /// SNORD27 /// SNORD28 /// SNORD29 /// SNORD31 / Fold change (Aza/veh), C12orf56 (ProbeSet 11735607_a_at) / Fold change (ACY-1035/veh), C12orf56 (ProbeSet 11735607_a_at) / Fold change (Aza/veh), FGFR1OP (ProbeSet 11751329_s_at) / Fold change (ACY-1035/veh), FGFR1OP (ProbeSet 11751329_s_at) / Fold change (Aza/veh), VPS36 (ProbeSet 11739960_a_at) / Fold change (ACY-1035/veh), VPS36 (ProbeSet 11739960_a_at) / RFU SYPL1 (11715823_x_at) / Fold change /veh SYPL1 (11715823_x_at) / RFU IGFBP7 (11715501_s_at) / Fold change /veh IGFBP7 (11715501_s_at) / RFU REEP3 (11722064_at) / Fold change /veh REEP3 (11722064_at) / RFU IGLL1 (11728026_x_at) / Fold change /veh IGLL1 (11728026_x_at): dose or concentration left out as unconfirmed
Settings: MV-4-11 cells, 48 hours

Nc1ncn([C@@H]2O[C@H](CO)[C@@H](O)[C@H]2O)c(=O)n1 [azacitidine]
RFU 11764193_at: 40.50 RFU
